Results reported in article PMC5365648, “Pharmacokinetics of the Novel Echinocandin CD101 in Multiple Animal Species” (Antimicrobial Agents and Chemotherapy, 2017).
Entries after “also recorded” stand apart in the source; their conditions may differ. Starred links: 1 amine or outer side, 2 acyl side, 3 side chain; linkers in the order of their positions; H or OH if unused. Positions of bridges follow the written chain, without caps; N, C: chain ends. Non-standard residues stand in square brackets, D forms with d. Residues, ends and D or L forms follow the SMILES beside them. *: point of attachment. Orn(4R-OH,5R-OCH2CH2NMe3+) = C[N+](C)(C)CCO[C@@H](N[*:3])[C@H](O)C[C@H](N[*:1])C(=O)[*:2]; pTerphenylCO(4''-OnC5H11) = CCCCCOc1ccc(-c2ccc(-c3ccc(C(=O)*)cc3)cc2)cc1; hTyr(3S-OH,4S-OH) = N[C@H](C(=O)O)[C@H](O)[C@@H](O)c1ccc(O)cc1; Pro(3S-OH,4S-Me) = C[C@H]1CN[C@H](C(=O)O)[C@H]1O; Hyp = O=C(O)[C@@H]1C[C@@H](O)CN1

Key:
[1] = Mouse pharmacokinetics, i.v. bolus; details: in vivo, iv, male ICR (CD-1) mice, single 1 mg/kg slow i.v. bolus, plasma, LC-MS/MS, noncompartmental from mean profile, n = 3/time point
Method: A single 1-mg/kg dose of CD101 or anidulafungin was administered by slow i.v. bolus (∼2 min) to male ICR (CD-1) mice (n = 3/group/time point). Blood samples (via cardiac puncture) were collected for plasma processing predose and at 0.083 (5 min), 0.5, 1, 4, 8, 24, 48, and 72 h postdose. PK profiles were generated based on mean results from the three animals sampled at each time point. In another study, a single 1-, 4-, or 16-mg/kg dose of CD101 was administered by i.p. injection to female ICR (CD-1) mice (n = 3/time point/dose), and blood samples (via cardiac puncture) were drawn for plasma processing at 1, 3, 6, 12, 24, 48, 72, and 96 h postdose.
(§1) For each of the pharmacokinetic studies, whole-blood samples (K3EDTA as anticoagulant) were collected and centrifuged within 30 min of collection. The resulting plasma was harvested and stored at −20°C until analysis. Tissue samples were homogenized by a bead-based homogenizer following the addition of deionized water to excised tissue in a 2:1 (vol/wt) ratio and stored at −20°C until analysis. Prior to analysis, plasma or homogenized tissue samples were quenched with acetonitrile (3:1, acetonitrile-plasma or tissue ratio) containing an appropriate internal standard (isotopically labeled d9-CD101 [mouse and rat] or a structural analog [dog, monkey, and chimpanzee]). Plasma and tissue homogenate concentrations (quantified against calibration standards processed the same way) were determined by reverse-phase, gradient liquid chromatography with tandem mass spectrometric detection (LC-MS/MS) using an AB-SCIEX API 3200Q/4000 mass spectrometry system. Calibration standard ranges were the following: 0.400 (lower limit of quantitation, [LLOQ]) to 200 μg/ml (CD101, mouse), 0.040 (LLOQ) to 10 μg/ml (anidulafungin, mouse), 0.002 (LLOQ) to 10 μg/ml (CD101, rat), 0.005 (LLOQ) to 10 μg/ml (anidulafungin, rat), 0.050 (LLOQ) to 10 μg/ml (CD101, dog), 0.020 (LLOQ) to 10 μg/ml (anidulafungin, dog), 0.010 (LLOQ) to 10 μg/ml (CD101, monkey), 0.001 (LLOQ) to 10 μg/ml (anidulafungin, monkey), 0.015 (LLOQ) to 10 μg/ml (CD101, chimpanzee), and 0.015 (LLOQ) to 10 μg/ml (anidulafungin, chimpanzee). When necessary, dilutions with blank matrix were made for samples that quantified above the upper limit of quantitation. The methods used in the analysis were qualified as fit for purpose: calibration standards were matrix matched with the exception that human plasma calibration standards were used to analyze chimpanzee plasma samples due to the rarity of blank chimpanzee plasma, and, for each analytical batch, triplicate calibration standards were included at the beginning, approximately in the middle, and at the end of the batch. Following analysis, quantitation was carried out by a calibration curve comprising the analyte/internal standard area ratio versus concentration. Analytical batch acceptance followed the general guidance that triplicate standards/quality controls be within ±20% for accuracy (percentage of nominal concentration) and ≤20% for precision (percent coefficient of variation).
(§2) Pharmacokinetic parameters were calculated by noncompartmental analysis using Phoenix WinNonlin (version 6.3; Pharsight, Mountain View, CA) from either individual or mean (mouse) concentration-time profiles. An unpaired t test was used to compare mean exposures from male and female rats.

[2] = Rat pharmacokinetics, i.v. bolus; assay type: in vivo, Sprague-Dawley rats
Method: In one of three rat studies reported here, a single 5-, 15-, or 45-mg/kg dose of CD101 was administered by slow i.v. bolus (∼3 min) to Sprague-Dawley rats (n = 3 to 5/dose). Blood samples (via jugular vein catheter [JVC]) were drawn for plasma processing at 0.083, 0.25, 0.5, 1, 2, 4, 8, 24, 48, 120, 168, and 240 h after dosing. In the second rat study, conducted to assess tissue distribution, a single 5-mg/kg dose of CD101 was administered by slow i.v. bolus (∼3 min) to male Sprague-Dawley rats (n = 3 animals/time point). Blood samples (via cardiac puncture) were collected for plasma processing predose and at 0.083, 0.5, 1, 2, 4, 8, 24, 48, 72, 96, and 120 h postdose. In parallel with blood collection, animals were euthanized, and tissues (liver, lungs, kidneys, heart, spleen, and brain) were excised and frozen prior to analysis. In the third rat study, conducted to assess excretion, a single 5-mg/kg dose of CD101 was administered by slow i.v. bolus (∼3 min) to bile duct-cannulated male Sprague-Dawley rats (n = 3). Bile samples were collected from each animal into prelabeled bile collection tubes predose and at 0 to 8, 8 to 24, 24 to 48, 48 to 72, 72 to 96, and 96 to 120 h postdose; urine samples were collected from each animal at the same time points pre- and postdose.
as §1, §2

[3] = rat, in vivo, iv, 5 mg/kg, female Sprague-Dawley rats, single 5 mg/kg slow i.v. bolus, plasma, LC-MS/MS, noncompartmental, n = 3 to 5/dose
[4] = rat, in vivo, iv, 5 mg/kg, male Sprague-Dawley rats, single 5 mg/kg slow i.v. bolus, plasma, LC-MS/MS, noncompartmental, n = 3 to 5/dose
[5] = rat, in vivo, iv, 15 mg/kg, female Sprague-Dawley rats, single 15 mg/kg slow i.v. bolus, plasma, LC-MS/MS, noncompartmental, n = 3 to 5/dose
[6] = rat, in vivo, iv, 15 mg/kg, male Sprague-Dawley rats, single 15 mg/kg slow i.v. bolus, plasma, LC-MS/MS, noncompartmental, n = 3 to 5/dose
[7] = rat, in vivo, iv, 45 mg/kg, female Sprague-Dawley rats, single 45 mg/kg slow i.v. bolus, plasma, LC-MS/MS, noncompartmental, n = 3 to 5/dose
[8] = rat, in vivo, iv, 45 mg/kg, male Sprague-Dawley rats, single 45 mg/kg slow i.v. bolus, plasma, LC-MS/MS, noncompartmental, n = 3 to 5/dose

CCCCCOc1ccc(-c2ccc(-c3ccc(C(=O)N[C@H]4C[C@@H](O)[C@@H](OCC[N+](C)(C)C)NC(=O)[C@@H]5[C@@H](O)[C@@H](C)CN5C(=O)[C@H]([C@@H](C)O)NC(=O)[C@H]([C@H](O)[C@@H](O)c5ccc(O)cc5)NC(=O)[C@@H]5C[C@@H](O)CN5C(=O)[C@H]([C@@H](C)O)NC4=O)cc3)cc2)cc1 [CD101] ({pTerphenylCO(4''-OnC5H11)}-[Orn(4R-OH,5R-OCH2CH2NMe3+)]T[Hyp][hTyr(3S-OH,4S-OH)]T[Pro(3S-OH,4S-Me)]; lactam 1-C)
AUC(0-inf) [1]: 166 µg·h/mL | AUC(0-t) [1]: 87.3 µg·h/mL | Cmax [1]: 9290 ng/mL | Tmax [1]: 4.98 min | half-life [1]: 25.2 h | clearance ([1]; read-out: CL (clearance)): 0.102 mL/min/kg | Vd ([1]; read-out: Vss (volume of distribution at steady state)): 0.206 L/kg | Tmax ([2]; female Sprague-Dawley rats, single 5 mg/kg slow i.v. bolus, plasma, LC-MS/MS, noncompartmental, n = 3 to 5/dose): 4.98 min | Tmax ([2]; male Sprague-Dawley rats, single 15 mg/kg slow i.v. bolus, plasma, LC-MS/MS, noncompartmental, n = 3 to 5/dose): 4.98 min | Tmax ([2]; male Sprague-Dawley rats, single 45 mg/kg slow i.v. bolus, plasma, LC-MS/MS, noncompartmental, n = 3 to 5/dose): 4.98 min | AUC(0-inf) [2, 3]: 188 µg·h/mL | AUC(0-t) [2, 3]: 185 µg·h/mL | Cmax [2, 3]: 10500 ng/mL | half-life [2, 3]: 35.7 h | clearance ([2]; rat, in vivo, iv, 5 mg/kg, female Sprague-Dawley rats, single 5 mg/kg slow i.v. bolus, plasma, LC-MS/MS, noncompartmental, n = 3 to 5/dose, read-out: CL (clearance)): 0.444 mL/min/kg | Vd ([2]; rat, in vivo, iv, 5 mg/kg, female Sprague-Dawley rats, single 5 mg/kg slow i.v. bolus, plasma, LC-MS/MS, noncompartmental, n = 3 to 5/dose, read-out: Vss (volume of distribution at steady state)): 1.21 L/kg | AUC(0-inf) [2, 4]: 183 µg·h/mL | AUC(0-t) [2, 4]: 180 µg·h/mL | Cmax [2, 4]: 12000 ng/mL | half-life [2, 4]: 34.9 h | clearance ([2]; rat, in vivo, iv, 5 mg/kg, male Sprague-Dawley rats, single 5 mg/kg slow i.v. bolus, plasma, LC-MS/MS, noncompartmental, n = 3 to 5/dose, read-out: CL (clearance)): 0.456 mL/min/kg | Vd ([2]; rat, in vivo, iv, 5 mg/kg, male Sprague-Dawley rats, single 5 mg/kg slow i.v. bolus, plasma, LC-MS/MS, noncompartmental, n = 3 to 5/dose, read-out: Vss (volume of distribution at steady state)): 1.16 L/kg | AUC(0-inf) [2, 5]: 441 µg·h/mL | AUC(0-t) [2, 5]: 435 µg·h/mL | Cmax [2, 5]: 27600 ng/mL | half-life [2, 5]: 34.9 h | clearance ([2]; rat, in vivo, iv, 15 mg/kg, female Sprague-Dawley rats, single 15 mg/kg slow i.v. bolus, plasma, LC-MS/MS, noncompartmental, n = 3 to 5/dose, read-out: CL (clearance)): 0.567 mL/min/kg | Vd ([2]; rat, in vivo, iv, 15 mg/kg, female Sprague-Dawley rats, single 15 mg/kg slow i.v. bolus, plasma, LC-MS/MS, noncompartmental, n = 3 to 5/dose, read-out: Vss (volume of distribution at steady state)): 1.45 L/kg | AUC(0-inf) [2, 6]: 580 µg·h/mL | AUC(0-t) [2, 6]: 562 µg·h/mL | Cmax [2, 6]: 35900 ng/mL | half-life [2, 6]: 42.7 h | clearance ([2]; rat, in vivo, iv, 15 mg/kg, male Sprague-Dawley rats, single 15 mg/kg slow i.v. bolus, plasma, LC-MS/MS, noncompartmental, n = 3 to 5/dose, read-out: CL (clearance)): 0.431 mL/min/kg | Vd ([2]; rat, in vivo, iv, 15 mg/kg, male Sprague-Dawley rats, single 15 mg/kg slow i.v. bolus, plasma, LC-MS/MS, noncompartmental, n = 3 to 5/dose, read-out: Vss (volume of distribution at steady state)): 1.42 L/kg | AUC(0-inf) [2, 7]: 1510 µg·h/mL | AUC(0-t) [2, 7]: 1490 µg·h/mL | Cmax [2, 7]: 115000 ng/mL | half-life [2, 7]: 39.9 h | clearance ([2]; rat, in vivo, iv, 45 mg/kg, female Sprague-Dawley rats, single 45 mg/kg slow i.v. bolus, plasma, LC-MS/MS, noncompartmental, n = 3 to 5/dose, read-out: CL (clearance)): 0.496 mL/min/kg | Vd ([2]; rat, in vivo, iv, 45 mg/kg, female Sprague-Dawley rats, single 45 mg/kg slow i.v. bolus, plasma, LC-MS/MS, noncompartmental, n = 3 to 5/dose, read-out: Vss (volume of distribution at steady state)): 1.55 L/kg | AUC(0-inf) [2, 8]: 1660 µg·h/mL | AUC(0-t) [2, 8]: 1610 µg·h/mL | Cmax [2, 8]: 164000 ng/mL | half-life [2, 8]: 44.5 h | clearance ([2]; rat, in vivo, iv, 45 mg/kg, male Sprague-Dawley rats, single 45 mg/kg slow i.v. bolus, plasma, LC-MS/MS, noncompartmental, n = 3 to 5/dose, read-out: CL (clearance)): 0.452 mL/min/kg | Vd ([2]; rat, in vivo, iv, 45 mg/kg, male Sprague-Dawley rats, single 45 mg/kg slow i.v. bolus, plasma, LC-MS/MS, noncompartmental, n = 3 to 5/dose, read-out: Vss (volume of distribution at steady state)): 1.57 L/kg | Vd ([2]; rat, in vivo, iv, rat, intravenous, one value for the species as given in the abstract (doses 5, 15, 45 mg/kg, both sexes in Table 1), read-out: Vss): 1.39 L/kg | clearance ([2]; rat, in vivo, iv, rat, intravenous, one value for the species as given in the abstract (doses 5, 15, 45 mg/kg, both sexes in Table 1), read-out: clearance): 0.47 mL/min/kg | Tmax ([2]; rat, in vivo, iv, female Sprague-Dawley rats, single 15 mg/kg slow i.v. bolus, plasma, LC-MS/MS, noncompartmental, n = 3 to 5/dose, read-out: Tmax): 4.98 min | Tmax ([2]; rat, in vivo, iv, female Sprague-Dawley rats, single 45 mg/kg slow i.v. bolus, plasma, LC-MS/MS, noncompartmental, n = 3 to 5/dose, read-out: Tmax): 4.98 min | Tmax ([2]; rat, in vivo, iv, male Sprague-Dawley rats, single 5 mg/kg slow i.v. bolus, plasma, LC-MS/MS, noncompartmental, n = 3 to 5/dose, read-out: Tmax): 4.98 min | half-life ([2]; rat, in vivo, iv, one value for the species as given in the abstract (doses 5, 15, 45 mg/kg, both sexes in Table 1)): 39 h | PK differences between males and females ([2]; rats (Table 1) or monkeys (data not shown)): no sex differences; also recorded: No PK differences between males and females
